This note sets out measurements from publication PMC7714071, “Interaction of amyloid beta with humanin and acetylcholinesterase is modulated by ATP” (FEBS Open Bio, 2020).

The experiment deals with HN-Aβ complex (A549 cell-conditioned media). Kind of experiment: ELISA, HN found in a complex with Aβ in A549 cell-conditioned media. The format is binding, human. To be noted: 6E10 or 82E1 on wells, relative to samples without ATP, three experiments in triplicate, Fig. 5A. The procedure:
Human NSCLC cell lines, A549 (ATCC CCL‐185) and H1299 (ATCC CRL‐5803), were purchased from the American Type Culture Collection (ATCC, Manassas, VA, USA). Cells were seeded as we reported earlier in 5 mL HyClone Dulbecco's modified Eagle's medium/nutrient mixture F‐12 (DMEM/F12) (GE Healthcare Life Sciences, Pittsburgh, PA, USA), supplemented with 10% Fetalgro bovine growth serum (FBS; RMBIO, Missoula, MT, USA), 50 U·mL^−1 penicillin, and […] streptomycin (Invitrogen, Life Technologies, Carlsbad, CA, USA) in 25‐cm^2 tissue culture flasks, and allowed to grow overnight in an incubator at 37 °C, 95% humidity, and 5% CO2. The cells were counted after trypan blue staining, with a hemocytometer.
ELISAs were carried out as we previously reported. […] TBST was then used to wash the wells 4× before proceeding in one of two ways: (a) biotinylated samples were analyzed by adding 100 µL streptavidin–HRP conjugate in TBST (1 : 2500 dilution) to the samples followed by incubation for 3 h at RT on a shaker, or (b) samples without biotin were analyzed by adding 100 µL TBST containing the primary antibody as per the manufacturer's recommendation, incubating for 3 h at RT on a shaker, followed by washing the wells 4× with TBST. […] The reaction was stopped with 100 µL 2 M H2SO4 after incubating at RT for 0.5–15 min, resulting in a yellow color change, measured by absorbance at 450 nm. […]

Turning to `Nc1ncnc2c1ncn2[C@@H]1O[C@H](COP(=O)(O)OP(=O)(O)OP(=O)(O)O)[C@@H](O)[C@H]1O` [ATP, Adenosine triphosphate], the “increase in the amount of HN bound to Aβ” value runs as follows: (100 μM ATP) ~ 1.85 fold; (1 mM ATP) ~ 2.5 fold.
